Paper PMC7972453, “The allosteric modulation of complement C5 by knob domain peptides” (eLife, 2021)
Read-outs that look alike come from different tables or passages of the source. Bridges are numbered along the chain shown (N, C = ends). Where no end group is shown, it is not given here.

Assays:
[1] = test system: alternative pathway mediated C5a release (complement C5); experiment: Inhibition of alternative pathway mediated C5a release (ELISA); type: biochemical, human; conditions: AP C5a release; n=3 (K8: n=4); ND* = Not detected
Experimental: For the C5b ELISA, assays were run using the CP and AP Complement functional ELISA kits (Svar Life Science, Malmö, Sweden). For sample preparation, serum was diluted as per the respective protocol for the CP and AP assays. Serial dilutions of peptides were prepared and allowed to incubate with serum for 15 min at room temperature prior to plating.
For the C5a ELISA, assays were run using the Complement C5a Human ELISA Kit (Invitrogen, Renfrew, UK). For sample preparation, at the end of the 37°C incubation of the serum/peptide samples on the C5b ELISA plate, 50 µL of the diluted, activated serum was transferred to a C5a ELISA plate containing 50 µL/well of assay buffer. All subsequent experimental steps were performed as described in the protocol.
Table 1.4. Inhibition of alternative pathway mediated C5a release.
Data from n=3, unless otherwise stated

[2] = molecular target: T1, human C5 (Homo sapiens, UniProt P01031); experiment: SPR multi-cycle kinetics, binding to C5
T1 construct: tissue TCS Biosciences (serum); host or cells: human serum
Experimental: Kinetics were measured using a Biacore 8K (GE Healthcare, Amersham, UK) with a CM5 chip, which was prepared as follows: 1-ethyl-3-(−3-dimethylaminopropyl) carbodiimide hydrochloride (EDC)/N-hydroxysuccinimide (NHS) was mixed at 1:1 ratio (flow rate, 10 µL/min; contact time, 30 s), and human C5 at 1 µg/mL in pH 4.5 sodium acetate buffer was injected over flow cell one only (flow rate, 10 µL/min; contact time, 60 s). Final immobilisation levels in the range of 2000–3000 RUs were obtained to yield theoretical Rmax values of ~50–60 RU. […] After each injection, the surface was regenerated with two sequential injections of 2 M MgCl2 (flow rate, 30 µL/min; contact time, 30 s). Binding to the reference surface was subtracted, and the data were fitted to a single-site binding model using Biacore evaluation software.
Table 2.6. Validation of molecular interactions by peptide mutagenesis analysis.
Summary of SPR multi-cycle kinetics

[3] = molecular target: T2, human C5b (Homo sapiens, UniProt P01031); experiment: SPR single-cycle kinetics, binding to C5b
T2 construct: Upon cleavage of C5a, the remaining domains of the α-chain undergo a substantial conformational change; C5a was removed using a spin column with 30 kDa cut-off; tissue TCS Biosciences (serum); host or cells: human serum; C5 cleaved in house with CVF, factor B and factor D
Experimental: Human C5 was affinity purified using an E141A, H164A OmCI column ([Macpherson et al., 2018]). Briefly, human serum (TCS Biosciences, Botolph Claydon, UK) was diluted 1:1 (v/v) with phosphate buffered saline (PBS), 20 mM ethylenediaminetetraacetic acid (EDTA), and applied to a 5 mL Hi-Trap NHS column (GE Healthcare, Amersham UK), which contained 20 mg of E141A H164A OmCI protein, at a rate of 1 mL/min. The column was washed with 5× column volumes (CV) of PBS, C5 was then eluted using 2 M MgCl2 and immediately dialysed into PBS. C5b was prepared from human C5 by incubating C5 with CVF, factor B and factor D, at a 1:10 molar ratio, as previously described ([Jore et al., 2016]). C5a was removed using a spin column with 30 kDa cut-off (Thermo Fisher Scientific, Horsham, UK).
(§1) On a Biacore 8K (GE Healthcare, Amersham, UK), human C5b was immobilised on a CM5 chip (GE Healthcare, Amersham, UK). Flow cells were activated using a standard immobilisation protocol: EDC/NHS was mixed at 1:1 ratio (flow rate, 10 µL/min; contact time, 30 s). C5b, at 1 µg/mL, or C5b-6 (Complement Technologies, Tyler, TX), at 2 µg/mL, in pH 4.5 sodium acetate buffer, were immobilised on flow cell two only (flow rate, 10 µL/min; contact time, 420 s). Finally, ethanolamine was applied to both flow cells (flow rate, 10 µL/min; contact time, 420 s). A final immobilisation level of 500–700 RUs was obtained for C5b and 1000–1150 RUs were obtained for C5b-6. Single-cycle kinetics were measured using a seven-point, threefold serial dilution (spanning a range of 1 µM to 1.4 nM) in HBS-EP buffer (GE Healthcare, Amersham, UK). A high flow rate of 40 µL/min was used, with a contact time of 300 s and a dissociation time of 2700 s. Binding to the reference surface was subtracted, and the data were fitted to a single-site binding model using Biacore evaluation software. All sensorgrams were inspected for evidence of mass transport limitation using the flow rate-independent component of the mass transfer constant (tc).
Table 4.1. SPR single-cycle kinetics of knob domains binding to human C5b.

[4] = molecular target: human C5b-6 (Homo sapiens, UniProt P01031+P13671); experiment: SPR single-cycle kinetics, binding to C5b-6; parameters: Upon cleavage of C5a, the remaining domains of the α-chain undergo a substantial conformational change; purchased Complement Technologies, Tyler, TX
Experimental: as §1
Table 4.2. SPR single-cycle kinetics of knob domains binding to human C5b-6.

T1 sequence (P01031 678-1676 limits assumed): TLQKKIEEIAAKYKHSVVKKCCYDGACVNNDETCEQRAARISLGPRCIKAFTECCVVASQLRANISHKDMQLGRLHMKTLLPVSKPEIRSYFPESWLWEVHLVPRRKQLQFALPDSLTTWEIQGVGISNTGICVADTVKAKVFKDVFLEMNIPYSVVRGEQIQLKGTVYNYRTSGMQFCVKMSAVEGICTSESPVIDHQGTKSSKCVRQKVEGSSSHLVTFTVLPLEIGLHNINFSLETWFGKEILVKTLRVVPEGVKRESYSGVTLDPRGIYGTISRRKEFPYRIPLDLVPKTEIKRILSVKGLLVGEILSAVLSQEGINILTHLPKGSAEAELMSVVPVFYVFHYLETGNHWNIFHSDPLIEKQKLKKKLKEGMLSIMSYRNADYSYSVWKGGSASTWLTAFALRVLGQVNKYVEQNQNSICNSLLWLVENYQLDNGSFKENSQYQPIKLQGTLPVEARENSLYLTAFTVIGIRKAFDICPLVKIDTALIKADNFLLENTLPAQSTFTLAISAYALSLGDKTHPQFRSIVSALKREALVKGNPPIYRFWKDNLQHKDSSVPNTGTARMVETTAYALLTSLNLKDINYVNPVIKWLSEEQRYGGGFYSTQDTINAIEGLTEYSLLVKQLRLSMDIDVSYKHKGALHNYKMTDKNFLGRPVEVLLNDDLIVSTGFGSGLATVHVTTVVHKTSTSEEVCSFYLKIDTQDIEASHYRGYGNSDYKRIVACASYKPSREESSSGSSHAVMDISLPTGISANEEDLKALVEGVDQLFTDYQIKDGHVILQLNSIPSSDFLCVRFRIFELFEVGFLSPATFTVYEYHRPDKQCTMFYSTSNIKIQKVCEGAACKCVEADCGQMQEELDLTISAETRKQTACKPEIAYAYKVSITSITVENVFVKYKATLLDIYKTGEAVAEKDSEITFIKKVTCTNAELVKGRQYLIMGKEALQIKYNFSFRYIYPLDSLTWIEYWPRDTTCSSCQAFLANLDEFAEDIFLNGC
T1 sequence (P01031 19-673 limits assumed): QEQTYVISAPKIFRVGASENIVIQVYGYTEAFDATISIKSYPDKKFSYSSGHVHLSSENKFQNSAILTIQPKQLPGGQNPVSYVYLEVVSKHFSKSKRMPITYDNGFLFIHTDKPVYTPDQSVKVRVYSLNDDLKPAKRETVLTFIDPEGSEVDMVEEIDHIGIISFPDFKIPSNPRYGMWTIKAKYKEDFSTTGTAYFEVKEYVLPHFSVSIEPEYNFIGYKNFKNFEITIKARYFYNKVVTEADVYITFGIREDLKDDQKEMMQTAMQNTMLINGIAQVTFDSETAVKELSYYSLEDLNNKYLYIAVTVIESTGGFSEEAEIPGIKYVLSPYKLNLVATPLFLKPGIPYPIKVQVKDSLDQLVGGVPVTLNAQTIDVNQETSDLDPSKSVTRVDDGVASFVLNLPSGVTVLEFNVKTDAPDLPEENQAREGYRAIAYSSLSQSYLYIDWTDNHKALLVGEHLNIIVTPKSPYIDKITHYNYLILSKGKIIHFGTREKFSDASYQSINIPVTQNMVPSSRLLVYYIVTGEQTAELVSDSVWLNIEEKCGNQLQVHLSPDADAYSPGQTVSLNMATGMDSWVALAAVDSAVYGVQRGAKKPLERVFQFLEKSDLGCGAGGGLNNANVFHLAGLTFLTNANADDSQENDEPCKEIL
T2 sequence (P01031 752-1676 limits assumed): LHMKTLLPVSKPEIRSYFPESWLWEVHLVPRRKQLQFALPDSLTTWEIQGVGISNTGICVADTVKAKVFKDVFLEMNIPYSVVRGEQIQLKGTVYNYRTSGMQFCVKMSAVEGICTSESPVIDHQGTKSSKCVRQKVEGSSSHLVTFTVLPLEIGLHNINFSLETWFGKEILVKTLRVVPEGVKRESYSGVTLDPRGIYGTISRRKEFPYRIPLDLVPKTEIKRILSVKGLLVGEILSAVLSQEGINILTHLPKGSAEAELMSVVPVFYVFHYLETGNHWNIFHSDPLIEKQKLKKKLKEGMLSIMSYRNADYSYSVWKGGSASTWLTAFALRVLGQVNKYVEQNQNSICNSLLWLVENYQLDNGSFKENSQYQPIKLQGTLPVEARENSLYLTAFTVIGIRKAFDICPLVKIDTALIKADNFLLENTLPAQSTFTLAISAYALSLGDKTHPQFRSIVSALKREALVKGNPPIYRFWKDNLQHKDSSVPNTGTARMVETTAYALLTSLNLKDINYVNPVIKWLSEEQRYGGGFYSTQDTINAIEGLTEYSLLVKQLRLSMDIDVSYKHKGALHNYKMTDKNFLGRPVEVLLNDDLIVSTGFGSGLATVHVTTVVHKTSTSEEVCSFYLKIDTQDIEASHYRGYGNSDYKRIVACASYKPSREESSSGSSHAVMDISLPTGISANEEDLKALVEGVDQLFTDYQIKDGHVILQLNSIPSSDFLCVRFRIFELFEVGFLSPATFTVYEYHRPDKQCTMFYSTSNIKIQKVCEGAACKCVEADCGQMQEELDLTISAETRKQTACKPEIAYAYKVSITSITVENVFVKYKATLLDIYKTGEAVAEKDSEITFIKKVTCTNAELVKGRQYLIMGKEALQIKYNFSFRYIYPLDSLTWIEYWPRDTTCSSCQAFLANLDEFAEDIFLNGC
T2 sequence (P01031 19-673 limits assumed): as the sequence (P01031 19-673 limits assumed) above
Sequence of human C5b-6 (P01031 752-1676 limits assumed): as the sequence (P01031 752-1676 limits assumed) above
Sequence of human C5b-6 (P01031 19-673 limits assumed): as the sequence (P01031 19-673 limits assumed) above
Sequence of human C5b-6 (P13671 22-934 partner): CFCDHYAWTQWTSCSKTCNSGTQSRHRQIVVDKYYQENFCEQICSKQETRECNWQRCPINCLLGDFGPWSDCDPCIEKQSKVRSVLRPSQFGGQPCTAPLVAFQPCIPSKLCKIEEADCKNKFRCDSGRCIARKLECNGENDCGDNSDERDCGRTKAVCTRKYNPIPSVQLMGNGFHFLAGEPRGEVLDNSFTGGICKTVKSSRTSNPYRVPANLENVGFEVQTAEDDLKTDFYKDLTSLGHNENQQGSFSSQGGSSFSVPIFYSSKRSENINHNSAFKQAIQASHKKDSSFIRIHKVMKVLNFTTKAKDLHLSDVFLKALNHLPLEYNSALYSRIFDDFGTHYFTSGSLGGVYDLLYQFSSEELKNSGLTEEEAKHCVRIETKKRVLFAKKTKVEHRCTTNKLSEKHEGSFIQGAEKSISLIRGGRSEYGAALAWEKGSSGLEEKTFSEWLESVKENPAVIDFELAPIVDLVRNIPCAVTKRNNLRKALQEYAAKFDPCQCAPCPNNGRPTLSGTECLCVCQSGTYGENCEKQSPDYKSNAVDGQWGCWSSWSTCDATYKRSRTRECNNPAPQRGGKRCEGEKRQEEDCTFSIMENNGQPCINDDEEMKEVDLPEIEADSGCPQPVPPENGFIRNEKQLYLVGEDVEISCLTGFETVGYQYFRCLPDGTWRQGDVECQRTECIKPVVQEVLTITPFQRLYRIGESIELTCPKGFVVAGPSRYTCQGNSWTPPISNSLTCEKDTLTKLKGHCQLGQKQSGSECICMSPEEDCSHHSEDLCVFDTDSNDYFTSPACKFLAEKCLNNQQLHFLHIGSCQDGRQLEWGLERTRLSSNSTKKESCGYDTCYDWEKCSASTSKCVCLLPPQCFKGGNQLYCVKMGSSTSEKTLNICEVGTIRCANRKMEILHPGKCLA

In the case of “SVCPDGFDWGYGCAAGSSRFCTRHDWCCYDERADSHTYGFCTGNRVENLYFQ (disulfide 3-28, 13-21, 27-41) [K8]”, the “Average Emax” value [1] is reported as 71.8%, the mean stoich. ratio ([2]; Biacore 8K, mean of n=3) is reported as 0.25 and the koff ([2]; pH 7.4, read-out: mean koff, Biacore 8K, HBS-EP pH 7.4, mean of n=3) is reported as 0.000385 s⁻¹. It also gave a kon ([2]; pH 7.4, read-out: mean kon, Biacore 8K, CM5 chip, HBS-EP pH 7.4, mean of n=3) of 70500 M⁻¹ s⁻¹, a koff ([2]; replicate n=1) of 0.000372 s⁻¹ and a kon ([2]; replicate n=1) of 71000 M⁻¹ s⁻¹. The stoich. ratio ([2]; replicate n=1) was 0.28, the koff ([2]; replicate n=2) was 0.000422 s⁻¹ and the kon ([2]; replicate n=2) was 72600 M⁻¹ s⁻¹. The stoich. ratio ([2]; replicate n=2) was 0.23, the koff ([2]; replicate n=3) was 0.000361 s⁻¹ and the kon ([2]; replicate n=3) was 67800 M⁻¹ s⁻¹. The stoich. ratio ([2]; replicate n=3) was 0.24, the “binding to C5b (in words)” value ([3]; SPR single-cycle kinetics) was “did not bind C5b” and the Stoichiometric ratio ([3]; replicate n=1) was 0.1. The “comment (binding)” value ([3]; replicate n=1) was “Non-binding”, the Stoichiometric ratio ([3]; replicate n=2) was 0.1 and the “comment (binding)” value ([3]; replicate n=2) was “Non-binding”. The Stoichiometric ratio ([3]; replicate n=3) was 0.2, the “comment (binding)” value ([3]; replicate n=3) was “Non-binding” and the Mean stoichiometric ratio ([3]; summary of n=3) was 0.1. For the same sequence, the “comment (binding)” value ([3]; summary of n=3) was “Non-binding”, the koff ([4]; read-out: mean koff, Biacore 8K, HBS-EP, summary of n=4) was 0.000295 s⁻¹ and the kon ([4]; read-out: mean kon, Biacore 8K, HBS-EP, summary of n=4) was 12500 M⁻¹ s⁻¹. For the same sequence, the Stoichiometric ratio ([4]; replicate n=1) was 0.3, the koff ([4]; replicate n=1) was 0.000282 s⁻¹ and the kon ([4]; replicate n=1) was 10100 M⁻¹ s⁻¹. It also gave a Stoichiometric ratio ([4]; replicate n=2) of 0.3, a koff ([4]; replicate n=2) of 0.000384 s⁻¹ and a kon ([4]; replicate n=2) of 12100 M⁻¹ s⁻¹. For the same sequence, the Stoichiometric ratio ([4]; replicate n=3) was 0.5, the koff ([4]; replicate n=3) was 0.00024 s⁻¹ and the Stoichiometric ratio ([4]; replicate n=4) was 0.3. It also gave a koff ([4]; replicate n=4) of 0.000277 s⁻¹, a kon ([4]; replicate n=4) of 15600 M⁻¹ s⁻¹ and a Mean stoichiometric ratio ([4]; summary of n=4) of 0.4.
